Source: patent US9650377B2, “Diazepinone derivatives” (Novartis AG, priority 2012, dated 2017)
pIC50: −log10 of the molar value.

Assays:
[1] = target: human mGluR5a receptors (Homo sapiens (Human), UniProt P41594); assay: Inhibition of glutamate-induced elevation of intracellular calcium in L(tk−) cells expressing human mGluR5a receptors; type: cell-based; settings: read-out: mGluR5 IC50
Source text: Activity of compounds of the present invention was examined by determination to what extent the glutamate-induced elevation of the intracellular calcium concentration in L(tk−) cells expressing human mGluR5a receptors (see L. P. Daggett et al., Neuropharm. Vol. 34, pages 871-886, 1995) is inhibited by utilizing methods as described e.g. by L. P. Daggett et al., Neuropharm. Vol. 34, pages 871-886 (1995) and P. J. Flor et al., J. Neurochem. Vol. 67, pages 58-63 (1996).
(§1) Activity of compounds of the present invention with respect to mGluR1 antagonism was examined by an assay based on measurements of L-glutamate induced intracellular calcium increases using a 96 well plate-based Fluorometric Imaging Plate Reader (FLIPR), and CHO cells stably expressing human mGluR1.

[2] = target: human mGluR1 (Homo sapiens (Human), UniProt Q13255); assay: mGluR1 antagonism: L-glutamate induced intracellular calcium increases, FLIPR, CHO cells stably expressing human mGluR1; type: cell-based; settings: inhibition of glutamate-induced elevation of intracellular calcium
Chain of human mGluR1 (Q13255 19-1194): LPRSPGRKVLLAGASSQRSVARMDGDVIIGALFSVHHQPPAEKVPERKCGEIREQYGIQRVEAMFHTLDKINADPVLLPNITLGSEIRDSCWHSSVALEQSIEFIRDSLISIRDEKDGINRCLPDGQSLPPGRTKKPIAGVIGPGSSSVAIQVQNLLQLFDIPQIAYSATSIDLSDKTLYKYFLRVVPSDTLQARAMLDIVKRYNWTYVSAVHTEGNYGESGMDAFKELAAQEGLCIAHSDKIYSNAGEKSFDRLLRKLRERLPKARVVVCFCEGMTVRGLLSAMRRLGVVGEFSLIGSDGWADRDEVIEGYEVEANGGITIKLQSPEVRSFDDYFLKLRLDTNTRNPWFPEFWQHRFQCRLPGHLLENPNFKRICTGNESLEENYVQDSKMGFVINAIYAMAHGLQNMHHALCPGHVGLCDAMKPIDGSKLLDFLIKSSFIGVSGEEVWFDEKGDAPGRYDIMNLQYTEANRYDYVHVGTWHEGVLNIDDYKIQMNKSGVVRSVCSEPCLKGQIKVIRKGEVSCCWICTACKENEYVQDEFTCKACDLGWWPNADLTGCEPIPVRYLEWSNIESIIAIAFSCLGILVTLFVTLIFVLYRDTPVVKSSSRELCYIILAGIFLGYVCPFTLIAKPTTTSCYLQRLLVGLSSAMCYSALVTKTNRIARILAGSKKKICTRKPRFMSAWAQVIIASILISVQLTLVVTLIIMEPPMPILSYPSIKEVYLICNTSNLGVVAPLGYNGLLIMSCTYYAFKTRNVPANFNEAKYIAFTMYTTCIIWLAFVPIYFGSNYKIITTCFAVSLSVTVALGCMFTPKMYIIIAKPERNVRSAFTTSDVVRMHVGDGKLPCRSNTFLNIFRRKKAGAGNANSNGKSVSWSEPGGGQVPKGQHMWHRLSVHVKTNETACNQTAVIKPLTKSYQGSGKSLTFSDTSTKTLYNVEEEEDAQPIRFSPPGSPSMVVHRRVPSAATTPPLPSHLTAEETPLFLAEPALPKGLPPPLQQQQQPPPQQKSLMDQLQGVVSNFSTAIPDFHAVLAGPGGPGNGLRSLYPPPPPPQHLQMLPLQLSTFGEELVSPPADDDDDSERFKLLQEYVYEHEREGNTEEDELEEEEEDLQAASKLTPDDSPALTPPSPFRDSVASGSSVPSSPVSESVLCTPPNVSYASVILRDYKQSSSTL
Source text: as §1, with “mGluR1. L-glutamate induced robust calcium responses via human mGluR1 in a concentration-dependent manner and in the low micromolar range. The table below represents IC50 values of the inhibition of the glutamate-induced elevation of the intracellular calcium concentration.” for “mGluR1.”

Chain of human mGluR5a receptors (P41594 other isoform, or with tags, fused parts or gaps): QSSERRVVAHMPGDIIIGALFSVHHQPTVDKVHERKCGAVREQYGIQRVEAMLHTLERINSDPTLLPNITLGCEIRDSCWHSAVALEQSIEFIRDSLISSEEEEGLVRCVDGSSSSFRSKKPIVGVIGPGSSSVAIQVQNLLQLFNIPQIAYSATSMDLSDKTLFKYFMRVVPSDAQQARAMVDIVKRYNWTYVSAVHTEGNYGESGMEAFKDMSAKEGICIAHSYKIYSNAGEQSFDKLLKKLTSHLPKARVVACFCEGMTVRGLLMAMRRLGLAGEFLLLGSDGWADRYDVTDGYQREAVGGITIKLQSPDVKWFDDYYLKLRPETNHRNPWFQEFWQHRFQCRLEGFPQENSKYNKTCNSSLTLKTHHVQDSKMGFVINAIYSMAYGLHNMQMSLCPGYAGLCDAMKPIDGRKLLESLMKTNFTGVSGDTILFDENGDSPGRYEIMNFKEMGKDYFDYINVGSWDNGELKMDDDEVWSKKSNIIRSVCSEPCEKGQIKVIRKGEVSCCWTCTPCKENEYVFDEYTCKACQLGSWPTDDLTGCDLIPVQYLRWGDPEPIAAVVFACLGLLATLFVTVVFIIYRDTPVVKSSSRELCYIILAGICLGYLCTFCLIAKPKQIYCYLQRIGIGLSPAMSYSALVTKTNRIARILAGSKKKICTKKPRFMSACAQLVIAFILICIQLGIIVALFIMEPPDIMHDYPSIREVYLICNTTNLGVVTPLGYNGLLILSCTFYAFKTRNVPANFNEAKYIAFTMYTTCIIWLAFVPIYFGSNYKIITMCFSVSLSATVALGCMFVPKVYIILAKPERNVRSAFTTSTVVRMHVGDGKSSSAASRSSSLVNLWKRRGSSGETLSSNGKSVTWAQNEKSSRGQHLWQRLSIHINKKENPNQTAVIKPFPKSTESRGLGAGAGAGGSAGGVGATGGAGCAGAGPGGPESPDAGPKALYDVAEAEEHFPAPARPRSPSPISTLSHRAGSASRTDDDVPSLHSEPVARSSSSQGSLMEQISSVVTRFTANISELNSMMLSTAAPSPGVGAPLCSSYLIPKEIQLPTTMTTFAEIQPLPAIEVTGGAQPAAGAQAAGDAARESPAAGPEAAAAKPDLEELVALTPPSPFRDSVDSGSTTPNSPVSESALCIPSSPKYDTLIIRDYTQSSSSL

SMILES	pIC50 [1]	pIC50 [2]
CCc1cn(C2=NCC(=O)N3CCc4c(cccc4C(C)O)C3=C2)cn1 (racemic) [Example 115, 2-(4-ethyl-1H-imidazol-1-yl)-9-(1-hydroxyethyl)-7,8-dihydro-[1,4]diazepino[7,1-a]isoquinolin-5(4H)-one]	6.31	< 5.00
Cn1cc(C2=NCC(=O)N3CCc4c(I)cccc4C3=C2)cn1 [Example 32, 9-iodo-2-(1-methyl-1H-pyrazol-4-yl)-7,8-dihydro-[1,4]diazepino[7,1-a]isoquinolin-5(4H)-one]	8.00	7.46
CCOCc1cn(C2=NCC(=O)N3CCc4c(cccc4-c4nc(C)cs4)C3=C2)cn1 [Example 88i, 2-(4-(ethoxymethyl)-1H-imidazol-1-yl)-9-(4-methylthiazol-2-yl)-7,8-dihydro-[1,4]diazepino[7,1-a]isoquinolin-5(4H)-one]	6.47	< 5.00
Cc1nc(-c2cccc3c2CCN2C(=O)CN=C(n4cnc(C5CCC5)c4)C=C32)co1 [Example 108b, 2-(4-cyclobutyl-1H-imidazol-1-yl)-9-(2-methyloxazol-4-yl)-7,8-dihydro-[1,4]diazepino[7,1-a]isoquinolin-5(4H)-one]	7.64	5.72
